Laboratory results published in PubChem BioAssay AID2060349 (Molecular Pharmacology Branch, DTP, NCI, 2025).
Values joined by “and” are separate entries in the source; they are usually repeats but may differ in a detail not shown here. Identical values can stand only once.

Tested on: 762968-020-R-J2-PDC spheroids viability
Assay: Anticancer human tumor 762968-020-R-J2-PDC patient-derived colon carcinoma cell line growth inhibition [TAK]
Conditions: spheroids with HUVEC and MSC; for viability, T/C: stronger effect = lower value; active = viability on the fitted dose curve at most 10% of control; inactive = the rest
From the text: Combinatorial screen of targeted agents with TAK-243 and ipatasertib in multi-cell type tumor spheroids
A high-throughput screen of multi-cell type tumor spheroids was designed to identify active combinations of targeted small molecules and TAK-243 or ipatasertib. Complex spheroids include a stromal component modeled by human endothelial cells (HUVEC) and fibroblasts modeled by human mesenchymal stem cells (MSCs). The concentration ranges selected for each drug and investigational agent were based upon clinically achievable concentrations if the clinical Cmax of the agent was known.
Compounds. The drugs and investigational agents: TAK-243 (785004), ipatasertib (767898), everolimus (733504), selumetinib (741078), bortezomib (756655), trametinib (758246), ixazomib (758254), vemurafenib (761431), dabrafenib (764134), sapanisertib (764658), alpelisib (765974), and copanlisib (816437), were obtained from the National Cancer Institute (NCI) Developmental Therapeutics Program Chemical Repository. The FDA-approved anticancer drug set is available from the NCI Developmental Therapeutics Program. […] The stock solutions were prepared in dimethyl sulfoxide (DMSO, Sigma-Aldrich, St. Louis, MO, cat. D2650) at 800-fold the tested concentration and stored at -70 degrees C prior to their use. All drugs and investigational agents were tested over a range starting from a high concentration at or near the clinical Cmax and decreasing in half-log increments. If the clinical Cmax for an agent had not been determined, the highest concentration tested was 10 microM.
NCI60 Cell Culture. NCI60 cell lines were obtained from the NCI Developmental Therapeutics Program Tumor Repository. For each lot of cells, the Repository performed Applied Biosystems AmpFLSTR Identifiler testing with PCR amplification to confirm consistency with the published Identifier STR profile for each cell line. Cells were kept in continuous culture for no more than 20 passages. The optimal seeding densities for each of the cell lines at each time point assessed were determined prior to performing the concentration response studies. Briefly, the NCI60 human tumor lines were grown as monolayers in RPMI 1640 medium supplemented with 10% FBS and 2 mmol/L L-glutamine.
An additional 2 lines were from the NCI60 cell line panel including melanomas, MALME-3M and SK-MEL-2. Pooled donor human umbilical vein endothelial cells (HUVEC, Lonza, cat. CC-2519) and human mesenchymal stem cells (hMSC, Lonza, cat. PT-2501) were purchased from Lonza (Walkersville, MD).
PDMR cell lines were grown in complete medium (DC medium): Dulbecco's modified Eagle's medium (DMEM)/F12 supplemented with 5% fetal bovine serum (FBS), 2 mM L-glutamine, 100 U/mL penicillin and 100 µg/ml streptomycin, 0.4 µg/ml hydrocortisone, 10 ng/ml epidermal growth factor (EGF) recombinant human protein, 24 µg/mL adenine, and 0.1 mg/mL primocin. During culture from frozen stock vials, PDMR cells were cultured in the same medium containing 10 µM Y-27632 (see Table 3). The PDCs were cultured in complete DMEM/F12 media without 10 microM Y-27632 dihydrochloride for at least two passages prior to the screen. The pooled donor HUVEC and hMSC were cultured in endothelial cell growth medium 2 (PromoCell, Heidelberg, Germany, cat. C-22011) and mesenchymal stem cell growth medium 2 (PromoCell, cat. C-28009), respectively. For all experiments, HUVEC and hMSC were used at passages </=5.
For the pre-screen, cell seeding densities were determined from a titration spanning the range from 5,000 to 313 cells per well. The mct-spheroids including 60% malignant cells, 25% HUVEC and 15% MSC dispensed as a mixture into U-bottom Ultra-Low Attachment 384-well plates (Corning, NY)
High-throughput Drug Combination Screening.
Prior to their inoculation into 384-well plates, malignant cells, HUVEC, and hMSC were removed from T flasks using TrypLE express (Thermo Fisher Scientific, cat. 12605036) and harvested by centrifugation for 5 min at 233 x g. […]
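Also: spheroids exposed to drug for 7 days before readout.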

CC(C)n1nc(-c2ccc3oc(N)nc3c2)c2c(N)ncnc21 + CC(C)NCC(C(=O)N1CCN(c2ncnc3c2C(C)CC3O)CC1)c1ccc(Cl)cc1
> 100 nM: IC50 (curve of first compound, second compound 0.3 µM) | IC50 (curve of first compound, second compound 0.949 µM) | IC50 (curve of first compound, second compound 3 µM) | IC50 (curve of first compound, second compound 9.49 µM) | IC50 (curve of first compound, second compound 30 µM)
inactive: viability, T/C (second compound 0.3 µM, first compound 0.000316 µM) 96.5% | viability, T/C (second compound 0.3 µM, first compound 0.001 µM) 97.1% | viability, T/C (second compound 0.3 µM, first compound 0.00316 µM) 101% | viability, T/C (second compound 0.3 µM, first compound 0.01 µM) 91.8% | viability, T/C (second compound 0.3 µM, first compound 0.0316 µM) 87.5% | viability, T/C (second compound 0.3 µM, first compound 0.1 µM) 72.9% | viability, T/C (second compound 0.949 µM, first compound 0.000316 µM) 96.9% | viability, T/C (second compound 0.949 µM, first compound 0.001 µM) 96.7% | viability, T/C (second compound 0.949 µM, first compound 0.00316 µM) 99.9% | viability, T/C (second compound 0.949 µM, first compound 0.01 µM) 99.3% | viability, T/C (second compound 0.949 µM, first compound 0.0316 µM) 87.4% | viability, T/C (second compound 0.949 µM, first compound 0.1 µM) 73.2% | viability, T/C (second compound 3 µM, first compound 0.000316 µM) 99.5% | viability, T/C (second compound 3 µM, first compound 0.001 µM) 95.1% | viability, T/C (second compound 3 µM, first compound 0.00316 µM) 103% | viability, T/C (second compound 3 µM, first compound 0.01 µM) 93.4% | viability, T/C (second compound 3 µM, first compound 0.0316 µM) 92.3% | viability, T/C (second compound 3 µM, first compound 0.1 µM) 65.7% | viability, T/C (second compound 9.49 µM, first compound 0.000316 µM) 94.4% | viability, T/C (second compound 9.49 µM, first compound 0.001 µM) 103% | viability, T/C (second compound 9.49 µM, first compound 0.00316 µM) 98.3% | viability, T/C (second compound 9.49 µM, first compound 0.01 µM) 93.4% | viability, T/C (second compound 9.49 µM, first compound 0.0316 µM) 79.1% | viability, T/C (second compound 9.49 µM, first compound 0.1 µM) 63.5% | viability, T/C (second compound 30 µM, first compound 0.000316 µM) 83% | viability, T/C (second compound 30 µM, first compound 0.001 µM) 84.2% | viability, T/C (second compound 30 µM, first compound 0.00316 µM) 84.3% | viability, T/C (second compound 30 µM, first compound 0.01 µM) 81.9% | viability, T/C (second compound 30 µM, first compound 0.0316 µM) 74% | viability, T/C (second compound 30 µM, first compound 0.1 µM) 63.6%

CC(C)CC(NC(=O)C(Cc1ccccc1)NC(=O)c1cnccn1)B(O)O (centres undefined)
> 10 nM: IC50 (curve of compound)
inactive: viability, T/C (compound 31.6 pM) 94.6% and 101% | viability, T/C (compound 0.0001 µM) 102% and 101% | viability, T/C (compound 0.000316 µM) 108% and 96.2% | viability, T/C (compound 0.001 µM) 103% and 99.8% | viability, T/C (compound 0.00316 µM) 109% and 99% | viability, T/C (compound 0.01 µM) 90.6% and 93.7%

CCCS(=O)(=O)Nc1ccc(F)c(C(=O)c2c[nH]c3ncc(-c4ccc(Cl)cc4)cc23)c1F
> 100000 nM: IC50 (curve of compound)
inactive: viability, T/C (compound 0.316 µM) 88.9% and 96.2% | viability, T/C (compound 1 µM) 87.8% and 96.9% | viability, T/C (compound 3.16 µM) 90.3% and 92.5% | viability, T/C (compound 10 µM) 73.6% and 62.2% | viability, T/C (compound 31.6 µM) 99.2% and 102% | viability, T/C (compound 100 µM) 90.3% and 105%
